Measured values from PubChem BioAssay AID248 (DTP/NCI, 2004).
“And” between values parts separate entries of the source, which are not always exact repeats. Identical values can stand only once. Inconclusive results and toxic doses are left out.

System: L1210 leukemia ip in BDF1 mice, survival T/C
Experiment: NCI In Vivo Anticancer Drug Screen. Data for tumor model L1210 Leukemia (intraperitoneal) in B6D2F1 (BDF1) mice
Settings: endpoint: mean survival time, higher = longer survival
Method in brief: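 Survival endpoint. Drug-treated group vs vehicle group, expressed as T divided by C. Tumor passaged by transplantation.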

Compound: O=NN(CCCl)C(=O)NC1CCCCC1
- T/C (dose: 0.06 mg/kg/injection, schedule: Q03HX024 (ip), vehicle: saline): 101 % of control
- T/C (dose: 0.06 mg/kg/injection, schedule: Q03HX024 (oral), vehicle: saline): 98 % of control
- T/C (dose: 0.06 mg/kg/injection, schedule: Q03HX040 (oral), vehicle: saline): 115 % of control
- T/C (dose: 0.13 mg/kg/injection, schedule: Q03HX024 (oral), vehicle: saline): 108 % of control
- T/C (dose: 0.13 mg/kg/injection, schedule: Q03HX040 (oral), vehicle: saline): 153 % of control
- T/C (dose: 0.16 mg/kg/injection, schedule: Q#B X003 (ip), vehicle: carboxymethylcellulose (CMC)): 103 % of control
- T/C (dose: 0.33 mg/kg/injection, schedule: Q#B X003 (ip), vehicle: carboxymethylcellulose (CMC)): 95 % of control
- T/C (dose: 0.39 mg/kg/injection, schedule: Q03HX040 (ip), vehicle: carboxymethylcellulose (CMC)): 100 % of control
- T/C (dose: 0.5 mg/kg/injection, schedule: Q01DX005 (ip), vehicle: saline): 101 % of control
- T/C (dose: 0.66 mg/kg/injection, schedule: Q#B X003 (ip), vehicle: carboxymethylcellulose (CMC)): 97 % of control
- T/C (dose: 0.78 mg/kg/injection, schedule: Q03HX024 (ip), vehicle: carboxymethylcellulose (CMC)): 106 % of control
- T/C (dose: 1.0 mg/kg/injection, schedule: Q01DX001 (ip), vehicle: saline): 104 % of control
- T/C (dose: 1.0 mg/kg/injection, schedule: Q01DX001 (oral), vehicle: saline): 100 % of control
- T/C (dose: 1.0 mg/kg/injection, schedule: Q01DX005 (ip), vehicle: saline): 104 % of control
- T/C (dose: 1.0 mg/kg/injection, schedule: Q03HX040 (ip), vehicle: saline): 100 % of control
- T/C (dose: 1.0 mg/kg/injection, schedule: Q## X001 (ip), vehicle: carboxymethylcellulose (CMC)): 106 % of control
- T/C (dose: 1.33 mg/kg/injection, schedule: Q#B X003 (ip), vehicle: carboxymethylcellulose (CMC)): 110 % of control
- T/C (dose: 1.56 mg/kg/injection, schedule: Q01DX009 (ip), vehicle: carboxymethylcellulose (CMC)): 105 % of control
- T/C (dose: 1.56 mg/kg/injection, schedule: Q03HX024 (ip), vehicle: carboxymethylcellulose (CMC)): 120 % of control
- T/C (dose: 1.56 mg/kg/injection, schedule: Q03HX040 (ip), vehicle: carboxymethylcellulose (CMC)): 119 % of control
- T/C (dose: 2.0 mg/kg/injection, schedule: Q01DX Z (ip), vehicle: carboxymethylcellulose (CMC)): 124 % of control
- T/C (dose: 2.0 mg/kg/injection, schedule: Q04DX004 (ip), vehicle: Klucel (hydroxypropylcellulose) (HPC)): 94 % of control
- T/C (dose: 2.66 mg/kg/injection, schedule: Q#B X003 (ip), vehicle: carboxymethylcellulose (CMC)): 121 % of control
- T/C (dose: 2.8 mg/kg/injection, schedule: Q01DX015 (ip), vehicle: carboxymethylcellulose (CMC)): 112 % of control
- T/C (dose: 3.12 mg/kg/injection, schedule: Q01DX005 (ip), vehicle: carboxymethylcellulose (CMC)): 113 % of control
- T/C (dose: 3.12 mg/kg/injection, schedule: Q01DX Z (ip), vehicle: carboxymethylcellulose (CMC)): 172 % of control
- T/C (dose: 4.0 mg/kg/injection, schedule: Q01DX009 (oral), vehicle: saline): 112 % of control
- T/C (dose: 4.0 mg/kg/injection, schedule: Q03HX003 (oral), vehicle: saline): 111 % of control
- T/C (dose: 4.2 mg/kg/injection, schedule: Q## X015 (ip), vehicle: carboxymethylcellulose (CMC)): 113 % of control
- T/C (dose: 4.4 mg/kg/injection, schedule: Q04DX004 (ip), vehicle: Klucel (hydroxypropylcellulose) (HPC)): 113 % of control
- T/C (dose: 5.0 mg/kg/injection, schedule: Q## X032 (ip), vehicle: carboxymethylcellulose (CMC)): 106 % of control and 110 % of control
- T/C (dose: 6.0 mg/kg/injection, schedule: Q02DX005 (ip), vehicle: carboxymethylcellulose (CMC)): 154 % of control
- T/C (dose: 6.0 mg/kg/injection, schedule: Q02DX006 (ip), vehicle: carboxymethylcellulose (CMC)): 158 % of control
- T/C (dose: 6.0 mg/kg/injection, schedule: Q02DX007 (ip), vehicle: carboxymethylcellulose (CMC)): 163 % of control
- T/C (dose: 6.0 mg/kg/injection, schedule: Q## X008 (ip), vehicle: carboxymethylcellulose (CMC)): 108 % of control
- T/C (dose: 6.25 mg/kg/injection, schedule: Q01DX001 (ip), vehicle: Klucel (hydroxypropylcellulose) (HPC)): 116 % of control
- T/C (dose: 6.25 mg/kg/injection, schedule: Q01DX001 (ip), vehicle: carboxymethylcellulose (CMC)): 109 % of control
- T/C (dose: 6.25 mg/kg/injection, schedule: Q01DX001 (oral), vehicle: carboxymethylcellulose (CMC)): 122 % of control
- T/C (dose: 6.25 mg/kg/injection, schedule: Q01DX005 (ip), vehicle: carboxymethylcellulose (CMC)): 157 % of control
- T/C (dose: 6.25 mg/kg/injection, schedule: Q07DX Z (ip), vehicle: carboxymethylcellulose (CMC)): 112 % of control
- T/C (dose: 6.7 mg/kg/injection, schedule: Q04DX004 (ip), vehicle: Klucel (hydroxypropylcellulose) (HPC)): 159 % of control
- T/C (dose: 7.2 mg/kg/injection, schedule: Q## X032 (ip), vehicle: carboxymethylcellulose (CMC)): 110 % of control
- T/C (dose: 7.5 mg/kg/injection, schedule: Q01DX001 (iv), vehicle: Klucel (hydroxypropylcellulose) (HPC)): 114 % of control
- T/C (dose: 8.0 mg/kg/injection, schedule: Q03HX003 (oral), vehicle: saline): 120 % of control
- T/C (dose: 8.0 mg/kg/injection, schedule: Q## X032 (ip), vehicle: carboxymethylcellulose (CMC)): 113 % of control
